# Measurements published in US6528517B1, “Synthesis of quinobenzoxazine analogues with topoisomerase II and quadruplex interactions for use as antineoplastic agents” (Board of Regents, The University of Texas System, priority 1998, dated 2003).
# How the values were obtained:
# [1] = target: T1, human topoisomerase II (Homo sapiens, UniProt P11388); experiment: Decatenation assay (catenated to decatenated KDNA); format: biochemical; conditions: drug concentration that inhibits 50% of conversion of catenated to decatenated KDNA; read-out: topoisomerase II inhibition IC50
# T1 construct: purchased TopoGEN, Inc
# T1 sequence (P11388 whole entry): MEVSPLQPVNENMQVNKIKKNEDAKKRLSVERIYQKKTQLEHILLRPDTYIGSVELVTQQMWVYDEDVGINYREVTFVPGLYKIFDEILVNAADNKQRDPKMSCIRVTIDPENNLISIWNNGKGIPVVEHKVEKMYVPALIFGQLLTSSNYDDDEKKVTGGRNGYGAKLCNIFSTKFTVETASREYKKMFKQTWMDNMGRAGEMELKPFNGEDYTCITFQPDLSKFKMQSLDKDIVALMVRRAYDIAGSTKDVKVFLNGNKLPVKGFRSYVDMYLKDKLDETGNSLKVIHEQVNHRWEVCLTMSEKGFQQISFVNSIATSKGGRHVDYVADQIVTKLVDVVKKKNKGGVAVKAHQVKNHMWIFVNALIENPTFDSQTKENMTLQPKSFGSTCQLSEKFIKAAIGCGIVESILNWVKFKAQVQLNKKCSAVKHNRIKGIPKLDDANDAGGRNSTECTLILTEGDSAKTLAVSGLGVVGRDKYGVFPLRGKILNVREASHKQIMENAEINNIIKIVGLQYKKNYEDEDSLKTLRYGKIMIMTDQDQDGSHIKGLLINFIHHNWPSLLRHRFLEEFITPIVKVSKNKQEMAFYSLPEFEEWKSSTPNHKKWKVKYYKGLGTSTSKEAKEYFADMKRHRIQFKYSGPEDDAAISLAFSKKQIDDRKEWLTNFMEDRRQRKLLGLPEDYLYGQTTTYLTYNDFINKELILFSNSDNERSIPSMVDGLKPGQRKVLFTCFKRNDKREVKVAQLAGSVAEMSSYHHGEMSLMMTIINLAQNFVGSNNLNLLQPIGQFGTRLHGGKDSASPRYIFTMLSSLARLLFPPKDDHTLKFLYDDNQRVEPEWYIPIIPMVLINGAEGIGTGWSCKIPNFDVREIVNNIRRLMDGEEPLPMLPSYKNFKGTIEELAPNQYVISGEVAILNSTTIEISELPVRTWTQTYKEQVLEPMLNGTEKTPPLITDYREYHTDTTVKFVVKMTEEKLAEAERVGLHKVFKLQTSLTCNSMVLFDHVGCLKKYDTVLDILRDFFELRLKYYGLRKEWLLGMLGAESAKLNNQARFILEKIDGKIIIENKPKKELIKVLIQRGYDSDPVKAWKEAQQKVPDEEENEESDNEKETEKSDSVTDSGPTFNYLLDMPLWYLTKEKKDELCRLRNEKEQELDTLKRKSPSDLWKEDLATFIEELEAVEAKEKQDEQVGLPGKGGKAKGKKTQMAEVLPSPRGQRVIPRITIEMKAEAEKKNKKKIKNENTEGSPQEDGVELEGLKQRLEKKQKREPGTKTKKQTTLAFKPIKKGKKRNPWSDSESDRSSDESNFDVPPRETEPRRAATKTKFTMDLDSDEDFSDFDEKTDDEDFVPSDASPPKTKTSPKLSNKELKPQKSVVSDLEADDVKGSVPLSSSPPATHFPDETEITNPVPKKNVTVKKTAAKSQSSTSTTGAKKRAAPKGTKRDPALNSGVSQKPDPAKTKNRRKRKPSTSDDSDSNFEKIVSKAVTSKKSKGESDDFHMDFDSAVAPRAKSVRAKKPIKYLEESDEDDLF
# Procedure: Kinetoplast DNA (KDNA), human topoisomerase II (170 KDa form), and DNA Unwinding Kit including supercoiled pHOT1 DNA, relaxed DNA marker, buffers, and human topoisomerase I were purchased from TopoGEN, Inc. Agarose was purchased from Fisher. Quinobenzoxazine A-62176 (S-enantiomer) was provided by Abbott Laboratories or prepared by published procedure (Chu and Maleczka, Jr., 1987).
# 0.25 μg of KDNA was incubated with various concentrations of the quinobenzoxazines in a 20-μl reaction mixture containing 50 mM Tris-HCl (pH 8), 120 mM KCl, 10 mM MgCl2, and 0.5 mM each of ATP, dithiothreitol, and […] BSA for 10 min. Two units of human topoisomerase II (170 KDa form) were added to the mixture, which was then incubated at 37° C. for 30 min. The reaction was terminated with 0.1 volume of stop buffer (5% sarkosyl, 0.025% bromophenol blue, and 50% glycerol). The decatenation products were analyzed on 1% agarose gels run with 0.5 μg/ml ethidium bromide. The gels were scanned by FluoroImager and analyzed by ImageQuaNT software (Molecular Dynamics).
# [2] = tested on: B16 melanoma; experiment: Cancer cell growth inhibition assay (MTT); format: cell-based, murine
# Procedure: (§1) Exponentially growing cells in 0.1 ml medium were seeded on Day 0 in 96-well microtiter plates. On Day 1, 0.1-ml aliquots of medium containing graded concentrations test agent were added in duplicate to the cell plates. After incubation at 37° C. in a humidified incubator, the plates were centrifuged briefly (1-2 min at 1000 rpm), and 100 μl of the growth medium was removed. Cell cultures were incubated with 50 μl of 3-(4,5-dimethylthiazyl-2-yl)-2,5-diphenyltetrazolium bromide MTT, 1 mg/ml in Dubecco's PBS for 4 h at 37° C. The resulting purple formazan precipitate was solubilized with 200 μl of 0.4 N HCl in isopropyl alcohol. Absorbance was quantitated using a Bio-Rad Model 3550 microplate reader at a test wavelength of 570 nm and a reference wavelength of 630 nm. Absorbance values were transferred to a 486 personal computer, and the IC50 values were determined using the computer program EZ-ED50 (Chen et al., 1993).
# [3] = tested on: DU-145 prostate; experiment: Cancer cell growth inhibition assay (MTT); format: cell-based, human
# Procedure: as §1
# [4] = tested on: H226 non-small-cell lung; experiment: Cancer cell growth inhibition assay (MTT); format: cell-based, human
# Procedure: as §1
# [5] = tested on: HT-29 colon; experiment: Cancer cell growth inhibition assay (MTT); format: cell-based, human
# Procedure: as §1
# [6] = tested on: MDA-231 breast; experiment: Cancer cell growth inhibition assay (MTT); format: cell-based, human
# Procedure: as §1
# [7] = tested on: Raji lymphoma; experiment: Cancer cell growth inhibition assay (MTT); format: cell-based, human
# Procedure: as §1
# [8] = tested on: human telomerase; experiment: Telomerase inhibition assay (HeLa cell extract); format: biochemical
# Procedure: The assay used crude HeLa cell extract as the source of human telomerase. It measures the incorporation of ^32P-labeled dGTP into the primer extension of human telomere synthesis (Sun et al., 1998). […] Specific examples of such dual-acting compounds include compounds 2b and 2a (FIG. 3).
# The assay was performed by using 5′-end biotinylated d[TTAGGG]3 as the telomere primer. Reaction mixtures (20 μl) containing 5 μl cell lysate (S-100), 50 mM Tris-OAc (pH 8.5), 50 mM K-OAc, 1 mM MgCl2, 5 mM BME, 1 mM spermidine, 1 μM telomere primer, 1.5 μM [α-^32P]-dGTP (800 Ci/mmol), 1 mM dATP, and 1 mM dTTP were incubated at 37° C. for 1 hr, and the reactions were terminated by adding 20 μl of […] streptavidin-coated Dynabeads suspension containing 10 mM Tris-HCl (pH 7.5), 1 mM EDTA, 2M KCl, and a 500 cpm biotinylated internal control. Streptavidin-coated Dynabeads bind selectively to the desired target (5′-biotinylated primer), forming a magnetic bead-targeted complex. The complex was separated from the suspension using a Dynal MPC magnet and washed several times with 2×SSC buffer containing 0.1% SDS to eliminate [α-^32P]-dGTP background. Telomerase reaction products were separated from the magnetic beads by protein denaturation with 5.7 M guanidine-HCl at 90° C. for 30 min. After ethanol precipitation, products were resolved on denaturating 10% polyacrylamide gel.
# [9] = tested on: human DNA G-quadruplex d(TTAGGG)4; experiment: NMR imino proton titration with G-quadruplex DNA; format: binding; conditions: overall stoichometry 1:1
# Procedure: (C) Compounds may be selected for their ability to interact with human DNA G-quadruplex as indicated by NMR spectroscopy. The imino proton spectrum (9-12 ppm) of a solution of d(TTAGGG)4 in D2O/H2O (10:90) was determined at 500 MHz. Aliquot of N,N′-bis(2-piperdinoethyl)-3,4,9,10-perylenetetracarboxylic acid diimide were added and the imino proton spectrum recorded.
# [10] = target: T2, topo II-DNA complex (Drosophila melanogaster, UniProt P15348); conditions: cited from earlier work
# T2 construct: purchased Amersham
# T2 sequence (P15348 1-1447): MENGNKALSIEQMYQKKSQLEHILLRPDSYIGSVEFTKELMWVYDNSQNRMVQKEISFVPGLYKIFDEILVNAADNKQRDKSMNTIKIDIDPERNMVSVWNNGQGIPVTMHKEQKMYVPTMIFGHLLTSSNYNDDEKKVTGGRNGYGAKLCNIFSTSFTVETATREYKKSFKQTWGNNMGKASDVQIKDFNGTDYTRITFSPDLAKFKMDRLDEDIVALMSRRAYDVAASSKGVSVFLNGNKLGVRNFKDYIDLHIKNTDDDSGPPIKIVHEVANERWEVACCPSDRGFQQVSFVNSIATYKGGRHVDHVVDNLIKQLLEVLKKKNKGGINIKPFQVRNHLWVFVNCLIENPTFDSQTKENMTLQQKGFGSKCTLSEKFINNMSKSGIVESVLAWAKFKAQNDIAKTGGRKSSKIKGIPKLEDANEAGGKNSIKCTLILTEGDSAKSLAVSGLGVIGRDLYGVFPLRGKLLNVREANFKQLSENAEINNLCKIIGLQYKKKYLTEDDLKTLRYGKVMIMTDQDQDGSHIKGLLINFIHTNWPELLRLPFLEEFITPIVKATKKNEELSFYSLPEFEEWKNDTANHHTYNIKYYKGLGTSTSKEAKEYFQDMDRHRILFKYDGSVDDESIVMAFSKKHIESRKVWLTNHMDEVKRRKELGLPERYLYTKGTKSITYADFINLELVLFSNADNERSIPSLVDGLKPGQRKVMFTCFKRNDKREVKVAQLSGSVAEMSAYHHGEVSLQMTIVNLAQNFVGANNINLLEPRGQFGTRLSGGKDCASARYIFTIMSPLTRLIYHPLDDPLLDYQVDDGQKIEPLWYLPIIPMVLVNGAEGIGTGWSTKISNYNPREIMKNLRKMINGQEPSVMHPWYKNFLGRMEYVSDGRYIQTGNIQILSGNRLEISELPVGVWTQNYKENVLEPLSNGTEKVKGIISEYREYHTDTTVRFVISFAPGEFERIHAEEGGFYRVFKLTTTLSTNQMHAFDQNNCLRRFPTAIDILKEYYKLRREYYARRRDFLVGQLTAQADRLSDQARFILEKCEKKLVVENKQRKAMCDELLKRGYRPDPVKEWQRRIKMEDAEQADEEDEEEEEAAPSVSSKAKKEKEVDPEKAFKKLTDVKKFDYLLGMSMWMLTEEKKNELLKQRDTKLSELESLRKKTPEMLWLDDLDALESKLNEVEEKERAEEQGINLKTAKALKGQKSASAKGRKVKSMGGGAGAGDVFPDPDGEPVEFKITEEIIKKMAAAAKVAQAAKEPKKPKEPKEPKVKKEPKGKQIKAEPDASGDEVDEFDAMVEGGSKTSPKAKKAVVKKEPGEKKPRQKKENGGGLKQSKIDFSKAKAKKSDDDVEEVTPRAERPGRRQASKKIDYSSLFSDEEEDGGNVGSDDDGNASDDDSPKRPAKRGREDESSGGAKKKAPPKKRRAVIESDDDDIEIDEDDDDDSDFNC
# [11] = tested on: prostate cell line DU-145; experiment: Cytotoxicity of III in combination with Norfloxacin; format: cell-based; conditions: given alone
# Procedure: FIG. 11. Effect of increasing concentrations of Norfloxacin on the cytotoxic effect of QQ58, compound III in FIG. 2 in the prostate cell line DU-145. Compound III was either given alone (●) or in combination with Norfloxacin at concentrations of 2.58 (♦), 19.37 (♦), or 87.33 (▪) μg/ml. For additions of 2.58 and 19.37 μ/ml of Norfloxacin, the IC50 of compound III was increased by approximately 14- and 20-fold.
# as §1, with “The resulting purple formazan precipitate was solubilized with 200 μl of 0.4 N HCl in isopropyl alcohol.” left out
# In separate studies, the IC50 of III and the IC10, IC20, and IC50 of Norfloxacin were determined for DU-145, a prostate cell line.
# [12] = target: T2, topo II-DNA complex; experiment: Psorospermin competition study (DNA strand breakage assay); format: biochemical; conditions: 0.5-10 μM drug, psorospermin, topo II present
# Procedure: 5′^32P-labeled DNA was incubated with Drosophila topo II in the same buffer as the one in the topo II cleavage reaction in the presence of various amounts of either A-62176, Norfloxacin, or both. The incubation reactions took place at 30° C. for 10 min before 10 μM (final concentration) of psorospermin was added to the mixtures. The reactions were continued for an additional 5 min and then terminated by adding 5 μg of calf thymus DNA, followed by heating at 95° C. for 15 min. In the presence of piperidine, this procedure induces strand breakage at the drug modification sites (Hansen et al., 1996). The samples were subjected to phenol/chloroform extraction followed by ethanol precipitation.
# In the presence of topo II, the reactivity of psorospermin is enhanced more than 40-fold with the guanine at the +4′ position at site B in FIG. 7 (Kwok et al., 1998a and 1998b). A DNA strand breakage assay was used to locate the position of alkylation of DNA by the epoxide of psorospermin upon intercalation to the base pairs between the +1 and +2 positions at site B within the topo II-DNA complex (Kwok et al., 1998a). Psorospermin has subsequently been used to probe the binding sites for m-AMSA (Kwok et al., 1998a). In the present study, this same assay was performed to determine the binding site of A-62176 on DNA in the presence of topo II.
# [13] = tested on: supercoiled pHOT1 DNA; experiment: DNA unwinding assay; format: biochemical; conditions: concentration shifting topoisomers to the middle position between relaxed and supercoiled bands
# Procedure: A 22 μl mixture of 0.25 μg of supercoiled pHOT1 DNA, 5 units of topoisomerase I in topoisomerase I buffer (provided with the kit) was incubated at 37° C. for 30 min. Two μl of various concentrations of drug was added, and the incubation was continued for another 30 min. The reactions were terminated by addition of SDS to 1%. Proteinase K was added to the reaction mixtures to ca. 50 μg/ml, and the reaction mixtures were incubated for 15-20 min at 56° C. After adding 0.1 volume of 10×gel loading buffer, the reaction mixtures were extracted with an equal volume of CIA (Chloroform:isoamyl Alcohol; 24:1). The samples were loaded on an 1% agarous gel that was cast in TPE buffer (36 mM Tris-HCl, pH 7.8, 1 mM EDTA, 30 mM NaH2PO4) and 0.2 μg/ml Chloroquine. The gel was run in TPE buffer at room temperature at 10 volts for 20 h, destained in water for 15 min, stained in 0.05 μg/ml ethidium bromide for 15 min, and destained again in water for 15 min. The gel was then photographed, scanned by FluoroImager, and analyzed by ImageQuaNT software (Molecular Dynamics).
SMILES,IC50 [1],IC50 [2],IC50 [3],IC50 [4],IC50 [5],IC50 [6],IC50 [7],telomerase inhibition (qualitative) [8],upfield shift of G6 imino resonance [9],enhancement of reactivity with guanine at +4′ position of site B in the presence of topo II [10],potency relative to III (fold less potent) [11],psorospermin alkylation at site B (competition) [12],DNA unwinding concn [13]
"Cl.NC1CCN(c2c(F)cc3c(=O)c(C(=O)O)cn4c3c2Oc2c-4ccc3ccccc23)C1 (racemic) [Compound 2a, 1-(3-Aminopyrrolidin-1-yl)-2-fluoro-4-oxo-4H-pyrido[3,2,1-k,l]-benzo[f]-phenoxazine-5-carboxylic Acid]",550 nM,40 ± 4 nM,17 ± 7 nM,22 ± 2 nM,30 ± 3 nM,27 ± 2 nM,18 ± 1 nM,dual-acting,,,,,
"O=C1c2ccc3c4ccc5c6c(ccc(c7ccc(c2c37)C(=O)N1CCN1CCCCC1)c64)C(=O)N(CCN1CCCCC1)C5=O [N,N′-bis(2-piperdinoethyl)-3,4,9,10-perylenetetracarboxylic acid diimide]",,,,,,,,,> 0.2 ppm,,,,
COc1cc2c(c3oc4c(O)cccc4c(=O)c13)C[C@H]([C@@]1(C)CO1)O2 [Psorospermin],,,,,,,,,,more than 40 fold,,,
CCn1cc(C(=O)O)c(=O)c2cc(F)c(N3CCNCC3)cc21 [Norfloxacin],,,,,,,,,,,at least 1000 fold,no competition,
"Cl.NC1CCN(c2c(F)cc3c(=O)c(C(=O)O)cn4c3c2Oc2cc3ccccc3cc2-4)C1 (stereo not shown) [Compound 3c, 1-(3-Aminopyrrolidin-1-yl)-2-fluoro-4-oxo-4H-pyrido[3,2,1-k,l]-benzo[g]-phenoxazine-5-carboxylic Acid]",440 nM,20 ± 6 nM,30 ± 6 nM,14 ± 2 nM,23 ± 3 nM,10 ± 2 nM,29 ± 5 nM,,,,,,13 µM
"O=C(O)c1cn2c3c(c(N4CCNCC4)c(F)cc3c1=O)Oc1c-2ccc2ccccc12 [Compound 5, 1-(Piperazin-1-yl)-2-fluoro-4-oxo-4H-pyrido[3,2,1-k,l]-benzo[f]phenoxazine-5-carboxylic Acid]",1840 nM,650 ± 60 nM,140 ± 40 nM,200 ± 30 nM,360 ± 90 nM,380 ± 50 nM,210 ± 40 nM,,,,,,>100 µM
